In patent US20050208496A1, “Methods of testing for bronchial asthma or chronic obstructive pulmonary disease” (Genox Research, Inc., priority 2002, published 2005):

System: respiratory epithelial cells

IL-13: human IL-13 (Peprotech, Inc.) added to the medium at 50 ng/mL to stimulate respiratory epithelial cells
HLA-F (37421_f_at) expression, fold change upon IL-13 stimulation (lot 1, Day 7, IMM method): 2.1 fold | HLA-F (49203_f_at) expression fold change (lot 1, Day 7, IMM method): 2.1 fold | HS3ST1 (41556_s_at) expression fold change upon IL-13 stimulation (lot 1, Day 7, IMM method): 3.7 fold | HUMRTVLH3 (34702_f_at) expression, fold change upon IL-13 stimulation (lot 1, Day 7, IMM method): 7 fold | IFI27 (425_at) expression, fold change upon IL-13 stimulation (lot 1, Day 7, IMM method): 2.8 fold | IFI35 (464_s_at) expression, fold change upon IL-13 stimulation (lot 1, Day 7, IMM method): 4.6 fold | IFI44 (37641_at) expression, fold change upon IL-13 stimulation (lot 1, Day 7, IMM method): 2.3 fold | IFIT1 (915_at) expression, fold change upon IL-13 stimulation (lot 1, Day 7, IMM method): 2.1 fold | IFIT4 (38584_at) expression, fold change upon IL-13 stimulation (lot 1, Day 7, IMM method): 3.4 fold | IFITM1 (675_at) expression, fold change upon IL-13 stimulation (lot 1, Day 7, IMM method): 8.1 fold | IL13RA2 (1016_s_at) expression fold change upon IL-13 stimulation (lot 1, Day 7, IMM method): 5.3 fold | IL19 (47855_at) expression fold change (lot 1, Day 7, IMM method): 2.6 fold | ISG15 (1107_s_at) expression, fold change upon IL-13 stimulation (lot 1, Day 7, IMM method): 3.8 fold | ISG15 (38432_at) expression, fold change upon IL-13 stimulation (lot 1, Day 7, IMM method): 5 fold | ISG20 (33304_at) expression, fold change upon IL-13 stimulation (lot 1, Day 7, IMM method): 4.2 fold | KIAA0469 (37230_at) expression, fold change upon IL-13 stimulation (lot 1, Day 7, IMM method): 2.4 fold | KIAA0537 (33787_at) expression, fold change upon IL-13 stimulation (lot 1, Day 7, IMM method): 3.3 fold | KIAA1199 (36070_at) expression, fold change upon IL-13 stimulation (lot 1, Day 7, IMM method): 2.3 fold | KIAA1268 (57050_at) expression fold change (lot 1, Day 7, IMM method): 2.4 fold | KIAAI268 (59516_at) expression fold change (lot 1, Day 7, IMM method): 4 fold | KRT16 (601_s_at) expression fold change (lot 1, Day 7, IMM method): 3.5 fold | LOC57118 (51085_at) expression fold change (lot 1, Day 7, IMM method): 5 fold | MAT2A (32571_at) expression fold change upon IL-13 stimulation (lot 1, Day 7, IMM method): 2.4 fold | MDA5 (51920_at) expression fold change (lot 1, Day 7, IMM method): 2.8 fold | MFHAS1 (50388_at) expression fold change (lot 1, Day 7, IMM method): 2.6 fold | MMP7 (668_s_at) expression, fold change upon IL-13 stimulation (lot 1, Day 7, IMM method): 2.8 fold | MX2 (879_at) expression fold change (lot 1, Day 7, IMM method): 2.4 fold | MXI (37014_at) expression fold change (lot 1, Day 7, IMM method): 11.2 fold | NK4 (39119_s_at) expression fold change upon IL-13 stimulation (lot 1, Day 7, IMM method): 2.5 fold | NOS2A (1948_f_at) expression fold change upon IL-13 stimulation (lot 1, Day 7, IMM method): 2.8 fold | NOS2A (48918_at) expression fold change (lot 1, Day 7, IMM method): 2.5 fold | NTRK1 (36805_s_at) expression, fold change upon IL-13 stimulation (lot 1, Day 7, IMM method): 6.5 fold | OAF (39695_at) expression, fold change upon IL-13 stimulation (lot 1, Day 7, IMM method): 5.1 fold | OAS1 (38388_at) expression fold change upon IL-13 stimulation (lot 1, Day 7, IMM method): 3.3 fold | OAS1 (38389_at) expression fold change upon IL-13 stimulation (lot 1, Day 7, IMM method): 3.3 fold | OSF-2 (1451_s_at) expression fold change upon IL-13 stimulation (lot 1, Day 7, IMM method): 30.6 fold | PHKB (46459_at) expression fold change (lot 1, Day 7, IMM method): −2.7 fold | PITPNB (35017_f_at) expression, fold change upon IL-13 stimulation (lot 1, Day 7, IMM method): 2.1 fold | PLS1 (39951_at) expression fold change (lot 1, Day 7, IMM method): 7.9 fold | PSMB9 (38287_at) expression fold change upon IL-13 stimulation (lot 1, Day 7, IMM method): 3.1 fold | RASGRP1 (33291_at) expression fold change (lot 1, Day 7, IMM method): 3.3 fold | RIG-1 (59215_at) expression fold change (lot 1, Day 7, IMM method): 3.8 fold | SECTM1 (41045_at) expression, fold change upon IL-13 stimulation (lot 1, Day 7, IMM method): 14 fold | SERPINB2 (37185_at) expression fold change (lot 1, Day 7, IMM method): 3 fold | SERPINB4 (1549_s_at) expression fold change (lot 1, Day 7, IMM method): 23.9 fold | SIAT1 (41352_at) expression fold change upon IL-13 stimulation (lot 1, Day 7, IMM method): 21.6 fold | SLC26A4, pendrin (36376_at) expression fold change (lot 1, Day 7, IMM method): 28.5 fold | SSI-1 (41592_at) expression, fold change upon IL-13 stimulation (lot 1, Day 7, IMM method): 8.3 fold | STAT1 (33339_g_at) expression fold change (lot 1, Day 7, IMM method): 2.1 fold | TSPAN-3 (38612_at) expression, fold change upon IL-13 stimulation (lot 1, Day 7, IMM method): 3.2 fold | UFD1L (811_at) expression, fold change upon IL-13 stimulation (lot 1, Day 7, IMM method): 3.8 fold | WARS (38121_at) expression fold change upon IL-13 stimulation (lot 1, Day 7, IMM method): 6 fold | cig5 (38549_at) expression, fold change upon IL-13 stimulation (lot 1, Day 7, IMM method): 2.2 fold | diubiquitin (39959_at) expression, fold change upon IL-13 stimulation (lot 1, Day 7, IMM method): 9.7 fold | AA059458 (65626_at) expression change (lot 1 Day 3 AI): −2.3 | AA151265 (60939_i_at) expression change (lot 1 Day 3 AI): −2.5 | AA160156 (47578_at) expression change (lot 1 Day 3 AI): −2.4 | AA422178 (53747_at) expression change (lot 1 Day 3 AI): −5.3 | AA456099 (59567_at) expression change (lot 1 Day 3 AI): −2 | AA772055 46104_at expression change (lot 1 Day 3 AI): −5.4 | AF052107 38262_at expression change (lot 1 Day 3 AI): −2.5 | AI050855 (64285_at) expression change (lot 1 Day 3 AI): −3.6 | AI264299 (84903_f_at) expression change (lot 1 Day 3 AI): −3.1 | AI432375 (49819_at) expression change (lot 1 Day 3 AI): −4.3 | AI468340 (72604_at) expression change (lot 1 Day 3 AI): −2 | AI760772 (58528_s_at) expression change (lot 1 Day 3 AI): −2.3 | AI829641 (84270_at) expression change (lot 1 Day 3 AI): −5.1 | AI917602 (49985_at) expression change (lot 1 Day 3 AI): −2.3 | AI923984 33546_at expression change (lot 1 Day 3 AI): −3.2 | AL040936 (45684_at) expression change (lot 1 Day 3 AI): −2.7 | AQP5 32909_at expression change (lot 1 Day 3 AI): −6.3 | ARHGEF4 36524_at expression change (lot 1 Day 3 AI): −3.5 | ARHV (82231_at) expression change (lot 1 Day 3 AI): −2 | AW025596 52637_g_at expression change (lot 1 Day 3 AI): −4.8 | BARX2 35425_at expression change (lot 1 Day 3 AI): −3.1 | BPGM (51261_at) expression change (lot 1 Day 3 AI): −4 | CRABP-II 1057_at expression change (lot 1 Day 3 AI): −4.6 | DKFZp434K1210 44682_at expression change (lot 1 Day 3 AI): −4.4 | DREV1 (63813_at) expression change (lot 1 Day 3 AI): −2 | DSC3a, b 47119_at expression change (lot 1 Day 3 AI): −2.4 | EIF4EBP1 (54152_at) expression change (lot 1 Day 3 AI): −2.2 | FLJ10298 (62490_f_at) expression change (lot 1 Day 3 AI): −3.7 | FLJ20048 (49196_at) expression change (lot 1 Day 3 AI): −2.4 | FLJ20373 54030_at expression change (lot 1 Day 3 AI): −2.1 | GABRP 40339_at expression change (lot 1 Day 3 AI): −2.2 | GJA1 32531_at expression change (lot 1 Day 3 AI): −4.4 | GSTA3 58023 at expression change (lot 1 Day 3 AI): −4.6 | HEY1 44783_s_at expression change (lot 1 Day 3 AI): −6.2 | HIN-1 (46200_at) expression change (lot 1 Day 3 AI): −5.4 | HSPC195 44705_at expression change (lot 1 Day 3 AI): −2.5 | IVL 36355_at expression change (lot 1 Day 3 AI): −6.8 | K1IAA1102 (64345_s_at) expression change (lot 1 Day 3 AI): −2.7 | KLF7 34216_at expression change (lot 1 Day 3 AI): −2.5 | KLF7 (42769_at) expression change (lot 1 Day 3 AI): −3.2 | KRT6B (62998_at) expression change (lot 1 Day 3 AI): −3.4 | KRT15 37582_at expression change (lot 1 Day 3 AI): −5.2 | LOC51297 (49616_at) expression change (lot 1 Day 3 AI): −9.1 | LOC51297 (55440_at) expression change (lot 1 Day 3 AI): −57.3 | LOC51297 (55442_g_at) expression change (lot 1 Day 3 AI): −14 | LOC51316 (63342_at) expression change (lot 1 Day 3 AI): −2 | LOC129642 (58288_at) expression change (lot 1 Day 3 AI): −2.8 | LOC131177 (43849_s_at) expression change (lot 1 Day 3 AI): −5.2 | LOC131177 (45394_s_at) expression change (lot 1 Day 3 AI): −4.4 | MGC13102 (54791_at) expression change (lot 1 Day 3 AI): −6.5 | MGC14128 55924_at expression change (lot 1 Day 3 AI): −2.6 | MGC14128 (51669_r_at) expression change (lot 1 Day 3 AI): −2.8
